Patent publication US20240246918A1, “COMPOUNDS AND COMPOSITIONS AS EIF4E INHIBITORS AND THE USES THEREOF” (Ribometrix, Inc., priority 2022, published 2024)

Tests used:
[1] = tested on: COLO 205 colorectal tumor cells; assay: Tumor cell viability inhibition assay (CellTiter-Glo 2.0, 72 hours); assay type: cell-based; conditions: Homo sapiens, COLO 205, 72 h, COLO 205 cell viability
Outline: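 IC50 derived by 4-parameter fitting after normalizing luminescence to DMSO and max-inhibition wells. Compounds tested as 11 concentrations in 4-fold steps on COLO 205 cells seeded at 1500 per well in RPMI-1640/10% FBS; ATP content measured with CellTiter-Glo 2.0 after 72 h.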

human eIF4E protein = target: T1, human eIF4E protein (Homo sapiens, UniProt P06730); assay: Biochemical competitive binding assay (TR-FRET competition, EDA-m7GDP-ATTO-647N probe); conditions: read-out: hEIF4E TR-FRET IC50
T1 construct: purchased Novus NBP-45314
Outline: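 IC50 values come from 4-parameter fits of the normalized 665/620 nm TR-FRET ratio. Compound was first incubated 15 min with 4 nM recombinant His-eIF4E bound to 2.5 nM Eu-anti-His antibody, then 15 min with 5 nM m7GDP-ATTO-647N tracer, in pH 7.5 HEPES buffer with 100 mM KCl, Tween-20 and BSA.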

[2] = tested on: cyclin D1 protein levels in COLO 205 cells; assay: Cyclin D1 cellular inhibition assay (HTRF, 6 hours); assay type: cell-based; conditions: Homo sapiens, COLO 205, 6 h, 6 hours of compound treatment, Cyclin D1 protein levels by HTRF, read-out: COLO 205 6 h Cyclin D1 TR-FRET IC50
Method: The effect of compound treatment on cyclin D1 protein levels in COLO 205 cells was assessed, as follows. Test compound plates were prepared with a Tecan D300e Digital Dispenser as 11-point concentration-response curves with a final DMSO concentration of 1%. COLO 205 (ATCC, CCL-222) colorectal tumor cells were seeded to assay-ready plates in RPMI-1640 medium supplemented with 10% FBS at 20,000 cells in a volume of 6 microliters per well. After 6 hours of compound treatment, cells were lysed and Cyclin D1 protein levels were assessed by an HTRF assay (PerkinElmer #64CYCD1ITPEG), according to the manufacturer's protocol. Time-resolved fluorescence was measured using a Clariostar Plus microplate reader (BMG Labtech) or equivalent. After normalization to the average of DMSO control and maximum inhibition control wells, concentration-response data were plotted and standard 4-parameter curve fitting (GraphPad Prism v9.4.1) was utilized to determine IC50 values.

[3] = tested on: cap-dependent translation in Flp-In-293 reporter cells; assay: Cellular cap-dependent translation inhibition assay (dual luciferase assay, DLA; Fluc/Rluc ratio, 24 hours); assay type: cell-based; conditions: Homo sapiens, Flp-In-293, 24 h, dual luciferase assay, Flp-In-293 reporter cells, 24 hours, Fluc/Rluc ratio; read-out: DLA 205 IC50

T1 sequence (P06730 whole entry): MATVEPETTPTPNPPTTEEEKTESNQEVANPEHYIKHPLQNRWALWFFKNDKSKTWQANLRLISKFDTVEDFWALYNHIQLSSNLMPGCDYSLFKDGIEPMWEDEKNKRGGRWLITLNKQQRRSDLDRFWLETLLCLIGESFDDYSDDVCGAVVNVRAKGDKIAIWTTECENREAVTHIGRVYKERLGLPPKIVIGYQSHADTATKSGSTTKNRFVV

Cc1cc(-c2cc(Cl)ccc2OCCn2c(C)nc3c(c2=O)CC(N2CC4(CCC(F)(F)CC4)C2)CC3)c2scc(C(=O)O)c2n1 (stereo not drawn) [Compound 161]
IC50 [1]: < 5 µM
IC50 (human eIF4E protein): < 0.1 µM
IC50 [2]: < 5 µM

Cc1cc(-c2cc(Cl)ccc2OCCn2c(C)nc3c(c2=O)CC(N(C)Cc2cncnc2)CC3)c2scc(C(=O)O)c2n1 (stereo not drawn) [Compound 187]
IC50 [1]: < 5 µM
IC50 (human eIF4E protein): < 0.1 µM
IC50 [2]: 5 to 20 µM

COc1cc(CN(C)C2CCc3nc(C)n(CCOc4ccc(Cl)cc4-c4cc(C)nc5c(C(=O)NS(C)(=O)=O)csc45)c(=O)c3C2)ccn1 (single isomer, unassigned) [Compound 216]
IC50 [1]: < 5 µM
IC50 (human eIF4E protein): < 0.1 µM
IC50 [2]: < 5 µM

Cc1cc(-c2cc(Cl)ccc2OCCn2c(C)nc3c(c2=O)CC(N(C)C)CO3)c2scc(C(=O)O)c2n1 (stereo not drawn) [Compound 230]
IC50 [1]: 5 to 20 µM
IC50 (human eIF4E protein): < 0.1 µM
IC50 [2]: 5 to 20 µM

Cc1cc(-c2cc(Cl)ccc2OCCn2c(C)nc3c(c2=O)C[C@H](N2C[C@H]4CCC(F)(F)[C@H]4C2)CC3)c2scc(C(=O)O)c2n1 (single isomer, unassigned) [Compound 166]
IC50 [1]: < 5 µM
IC50 (human eIF4E protein): < 0.1 µM
IC50 [2]: < 5 µM

Cc1cc(-c2cc(Cl)ccc2OCCn2c(C)nc3c(c2=O)CC(N(C)Cc2ccnc(C(F)(F)F)c2)CC3)c2scc(C(=O)O)c2n1 (stereo not drawn) [Compound 198]
IC50 [1]: < 5 µM
IC50 (human eIF4E protein): < 0.1 µM
IC50 [2]: < 5 µM

Cc1cc(-c2cc(Cl)ccc2OCCn2c(C)nc3c(c2=O)C[C@@H](N2CCC[C@@]4(C2)CC4(F)F)CC3)c2scc(C(=O)O)c2n1 (single isomer, unassigned) [Compound 141]
IC50 [1]: < 5 µM
IC50 (human eIF4E protein): < 0.1 µM
IC50 [2]: < 5 µM

Cc1cc(-c2cc(Cl)ccc2OCCn2c(C)nc3c(c2=O)CC(N2CC4CCC(C4)C2)CC3)c2scc(C(=O)O)c2n1 (stereo not drawn) [Compound 176]
IC50 [1]: < 5 µM
IC50 (human eIF4E protein): < 0.1 µM
IC50 [2]: < 5 µM

Cc1cc(-c2cc(Cl)ccc2OCCn2c(C)nc3c(c2=O)CC(N(C)Cc2ncccn2)CC3)c2scc(C(=O)O)c2n1 (stereo not drawn) [Compound 202]
IC50 [1]: > 20 µM
IC50 (human eIF4E protein): < 0.1 µM
IC50 [2]: 5 to 20 µM

Cc1cc(-c2cc(Cl)ccc2OCCn2c(C)nc3c(c2=O)CC(N(C)Cc2ccsc2)CC3)c2scc(C(=O)O)c2n1 (stereo not drawn) [Compound 191]
IC50 [1]: < 5 µM
IC50 (human eIF4E protein): < 0.1 µM
IC50 [2]: < 5 µM

Cc1cc(-c2cc(Cl)ccc2OCCn2c(C)nc3c(c2=O)C[C@@H](N2C[C@H]4CC(F)(F)[C@H]4C2)CC3)c2scc(C(=O)O)c2n1 (single isomer, unassigned) [Compound 148]
IC50 [1]: < 5 µM
IC50 (human eIF4E protein): < 0.1 µM
IC50 [2]: < 5 µM

Cc1cc(-c2cc(Cl)ccc2OCCn2c(C)nc3c(c2=O)CC(N(C)Cc2cccc(OC(F)(F)F)c2)CC3)c2scc(C(=O)O)c2n1 (stereo not drawn) [Compound 222]
IC50 [1]: < 5 µM
IC50 (human eIF4E protein): < 0.1 µM
IC50 [2]: < 5 µM

Cc1cc(-c2ccc(Cl)cc2OCCn2c(C)nc3c(c2=O)C[C@H](N(C)[C@H]2C[C@@](C)(O)C2)CC3)c2scc(C(=O)O)c2n1 (single isomer, unassigned) [Compound 229]
IC50 [1]: > 20 µM
IC50 (human eIF4E protein): < 0.1 µM
IC50 [2]: > 20 µM

Cc1cc(-c2cc(Cl)ccc2OCCn2c(C)nc3c(c2=O)C[C@@H](N(C)[C@H]2CC[C@@](C)(O)CC2)CC3)c2scc(C(=O)NS(C)(=O)=O)c2n1 (single isomer, unassigned) [Compound 215]
IC50 [1]: > 20 µM
IC50 (human eIF4E protein): < 0.1 µM
IC50 [2]: > 20 µM

Cc1cc(-c2cc(Cl)ccc2OCCn2c(C)nc3c(c2=O)CC(N2CCc4ncsc4C2)CC3)c2scc(C(=O)O)c2n1 (stereo not drawn) [Compound 164]
IC50 [1]: < 5 µM
IC50 (human eIF4E protein): < 0.1 µM
IC50 [2]: < 5 µM

Cc1cc(-c2cc(Cl)ccc2OCCn2c(C)nc3c(c2=O)CC(N(C)Cc2ncc[nH]2)CC3)c2scc(C(=O)O)c2n1 (stereo not drawn) [Compound 190]
IC50 [1]: > 20 µM
IC50 (human eIF4E protein): < 0.1 µM
IC50 [2]: > 20 µM

Cc1nc2c(c(=O)n1CCOc1ccc(Cl)cc1-c1ccnc(C(=O)O)c1)CC(N(C)CC1CC(F)(F)C1)CC2 (stereo not drawn) [Compound 219]
IC50 [1]: > 20 µM
IC50 (human eIF4E protein): < 0.1 µM
IC50 [2]: > 20 µM

Cc1cc(-c2cc(Cl)ccc2OCCn2c(C)nc3c(c2=O)C[C@H](N2C[C@@H]4CCC(F)(F)[C@@H]4C2)CC3)c2scc(C(=O)O)c2n1 (single isomer, unassigned) [Compound 167]
IC50 [1]: < 5 µM
IC50 (human eIF4E protein): < 0.1 µM
IC50 [2]: < 5 µM

COC1CCN(C2Cc3c(cc(C)n(CCOc4ccc(Cl)cc4-c4cc(C)nc5c(C(=O)O)csc45)c3=O)C3(CC3)C2)CC1 (stereo not drawn) [Compound 151]
IC50 [1]: < 5 µM
IC50 (human eIF4E protein): < 0.1 µM
IC50 [2]: < 5 µM

Cc1cc(-c2cc(Cl)ccc2OCCn2c(C)nc3c(c2=O)C[C@@H](N(C)C[C@H]2C[C@@H](C(F)(F)F)C2)CC3)c2scc(C(=O)O)c2n1 (stereo in doubt) [Compound 189]
IC50 [1]: < 5 µM
IC50 (human eIF4E protein): < 0.1 µM
IC50 [2]: < 5 µM

Cc1cc(-c2cc(Cl)ccc2OCCn2c(C)nc3c(c2=O)CC(N2CCC(OCCO)CC2)CC3)c2scc(C(=O)O)c2n1 (stereo not drawn) [Compound 208]
IC50 [1]: > 20 µM
IC50 (human eIF4E protein): < 0.1 µM
IC50 [2]: > 20 µM

Cc1cc(-c2cc(Cl)ccc2OCCn2c(C)nc3c(c2=O)CC(N2CCC4(CC2)CC(O)(C(F)(F)F)C4)CC3)c2scc(C(=O)O)c2n1 (stereo not drawn) [Compound 212]
IC50 [1]: 5 to 20 µM
IC50 (human eIF4E protein): < 0.1 µM
IC50 [2]: 5 to 20 µM

Cc1cc(-c2cc(Cl)ccc2OCCn2c(C)nc3c(c2=O)CC(N2CCc4cccnc4C2)CC3)c2scc(C(=O)O)c2n1 (stereo not drawn) [Compound 165]
IC50 [1]: < 5 µM
IC50 (human eIF4E protein): < 0.1 µM
IC50 [2]: < 5 µM

Cc1cc(-c2cc(Cl)ccc2OCCn2c(C)nc3c(c2=O)CC(N2CC4C(C2)C4(F)F)CC3)c2scc(C(=O)O)c2n1 (stereo not drawn) [Compound 172]
IC50 [1]: < 5 µM
IC50 (human eIF4E protein): < 0.1 µM
IC50 [2]: < 5 µM

Cc1cc(-c2cc(Cl)ccc2OCCn2c(C)nc3c(c2=O)CC(N2CC4(C2)CC(O)(C(F)(F)F)C4)CC3)c2scc(C(=O)O)c2n1 (stereo not drawn) [Compound 195]
IC50 [1]: > 20 µM
IC50 (human eIF4E protein): < 0.1 µM
IC50 [2]: > 20 µM

Cc1cc(-c2cc(Cl)ccc2OCCn2c(C)nc3c(c2=O)CC(N(C)Cc2cc[nH]n2)CC3)c2scc(C(=O)O)c2n1 (stereo not drawn) [Compound 186]
IC50 [1]: > 20 µM
IC50 (human eIF4E protein): < 0.1 µM
IC50 [2]: > 20 µM

Cc1cc(-c2cc(Cl)ccc2OCCn2c(C)nc3c(c2=O)CC(N2CCC(C)(O)CC2)CC3)c2scc(C(=O)O)c2n1 (stereo not drawn) [Compound 209]
IC50 [1]: > 20 µM
IC50 (human eIF4E protein): < 0.1 µM
IC50 [2]: > 20 µM

Cc1cc(-c2cc(Cl)ccc2OCCn2c(C)nc3c(c2=O)C[C@H](N2C[C@H]4CC(F)(F)[C@H]4C2)CC3)c2scc(C(=O)O)c2n1 (single isomer, unassigned) [Compound 147]
IC50 [1]: < 5 µM
IC50 (human eIF4E protein): < 0.1 µM
IC50 [2]: < 5 µM

Cc1cc(-c2cc(Cl)ccc2OCCn2c(C)nc3c(c2=O)C[C@@H](N2C[C@H]4CCC(F)(F)[C@H]4C2)CC3)c2scc(C(=O)O)c2n1 (single isomer, unassigned) [Compound 168]
IC50 [1]: < 5 µM
IC50 (human eIF4E protein): < 0.1 µM
IC50 [2]: < 5 µM

Cc1cc(-c2cc(Cl)ccc2OCCn2c(C)nc3c(c2=O)CC(N(C)[C@H]2C[C@](C)(O)C2)CC3)c2scc(C(=O)O)c2n1 (stereo partly drawn) [Compound 193]
IC50 [1]: > 20 µM
IC50 (human eIF4E protein): < 0.1 µM
IC50 [2]: > 20 µM

Cc1cc(-c2cc(Cl)ccc2OCCn2c(C)nc3c(c2=O)CC(N(C)Cc2cnc(C)s2)CC3)c2scc(C(=O)O)c2n1 (stereo not drawn) [Compound 185]
IC50 [1]: < 5 µM
IC50 (human eIF4E protein): < 0.1 µM
IC50 [2]: < 5 µM

Cc1cc(-c2cc(Cl)ccc2OCCn2c(C)nc3c(c2=O)CC(N(C)Cc2cccnc2)CC3)c2scc(C(=O)O)c2n1 (stereo not drawn) [Compound 196]
IC50 [1]: < 5 µM
IC50 (human eIF4E protein): < 0.1 µM
IC50 [2]: < 5 µM

Cc1cc(-c2cc(Cl)ccc2OCCn2c(C)nc3c(c2=O)CC(N(C)Cc2ccnnc2)CC3)c2scc(C(=O)O)c2n1 (stereo not drawn) [Compound 188]
IC50 [1]: > 20 µM
IC50 (human eIF4E protein): < 0.1 µM
IC50 [2]: > 20 µM

Cc1cc2c(cn1)CCN(C1CCc3nc(C)n(CCOc4ccc(Cl)cc4-c4cc(C)nc5c(C(=O)O)csc45)c(=O)c3C1)C2 (stereo not drawn) [Compound 177]
IC50 [1]: < 5 µM
IC50 (human eIF4E protein): < 0.1 µM
IC50 [2]: < 5 µM

Cc1cc(-c2cc(Cl)ccc2OCCn2c(C)nc3c(c2=O)CC(N(C)CC2CC(F)(F)C2)CC3)c2scc(C(=O)NS(C)(=O)=O)c2n1 (single isomer, unassigned) [Compound 256]
IC50 [1]: < 5 µM
IC50 (human eIF4E protein): < 0.1 µM
IC50 [3]: < 1 µM
